Here are results for 22 compounds from PubChem BioAssay AID248 (DTP/NCI, 2004).

Several values for one entry are separate records, joined by “and”; a condition that tells them apart may be missing. Equal values may be shown once. Toxic doses and inconclusive results are not listed.

This assay concerns L1210 leukemia ip in BDF1 mice, survival T/C. Kind of assay: NCI In Vivo Anticancer Drug Screen. Data for tumor model L1210 Leukemia (intraperitoneal) in B6D2F1 (BDF1) mice. As to conditions: endpoint: mean survival time, higher = longer survival. The procedure, abridged:
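Survival endpoint. Drug-treated group vs vehicle group, expressed as T divided by C. Tumor passaged by transplantation.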

[1] abbreviates: dose: 50.0 mg/kg/injection, schedule: Q01DX009 (ip), vehicle: saline.
The mark [2] stands for this setting: dose: 50.0 mg/kg/injection, schedule: Q04DX003 (ip), vehicle: saline.
Where [3] appears, read: dose: 100.0 mg/kg/injection, schedule: Q04DX003 (ip), vehicle: saline.
Where [4] appears, read: dose: 100.0 mg/kg/injection, schedule: Q04DX003 (ip), vehicle: saline with Tween-80.
[5] abbreviates: dose: 200.0 mg/kg/injection, schedule: Q04DX003 (ip), vehicle: saline with Tween-80.
Setting [6] is: dose: 100.0 mg/kg/injection, schedule: Q01DX009 (ip), vehicle: Klucel (hydroxypropylcellulose) (HPC).
Where [7] appears, read: dose: 100.0 mg/kg/injection, schedule: Q04DX003 (ip), vehicle: Klucel (hydroxypropylcellulose) (HPC).
The mark [8] stands for this setting: dose: 200.0 mg/kg/injection, schedule: Q01DX009 (ip), vehicle: Klucel (hydroxypropylcellulose) (HPC).
[9] abbreviates: dose: 200.0 mg/kg/injection, schedule: Q04DX003 (ip), vehicle: Klucel (hydroxypropylcellulose) (HPC).
Setting [10] is: dose: 400.0 mg/kg/injection, schedule: Q01DX009 (ip), vehicle: Klucel (hydroxypropylcellulose) (HPC).
Where [11] appears, read: dose: 400.0 mg/kg/injection, schedule: Q04DX003 (ip), vehicle: Klucel (hydroxypropylcellulose) (HPC).
[12] abbreviates: dose: 50.0 mg/kg/injection, schedule: Q01DX009 (ip), vehicle: Klucel (hydroxypropylcellulose) (HPC).
Setting [13] is: dose: 50.0 mg/kg/injection, schedule: Q01DX Z (ip), vehicle: methylcellulose (MC).
Setting [14] is: dose: 50.0 mg/kg/injection, schedule: Q04DX003 (ip), vehicle: Klucel (hydroxypropylcellulose) (HPC).

For the compound `CCC(CC)C1CC[N-]CC1.CCC(CC)C1CC[N-]CC1.N#C[S-].N#C[S-].[Cu]`, for the setting “dose: 75.0 mg/kg/injection, schedule: Q01DX001 (ip), vehicle: saline”, the T/C is 123 % of control.

Turning to `C=C[C+](CCCC)C(=O)[O-]`, the T/C is 95 % of control (dose: 25.0 mg/kg/injection, schedule: Q01DX009 (ip), vehicle: saline); 92 % of control under setting [1]; 98 % of control under setting [2]; 96 % of control (dose: 100.0 mg/kg/injection, schedule: Q01DX001 (ip), vehicle: acetone); 87 % of control (dose: 100.0 mg/kg/injection, schedule: Q01DX009 (ip), vehicle: saline); 93 % of control under setting [3]. Further, the T/C runs as follows: (dose: 150.0 mg/kg/injection, schedule: Q01DX009 (ip), vehicle: saline) 101 % of control; (dose: 200.0 mg/kg/injection, schedule: Q01DX001 (ip), vehicle: acetone) 95 % of control; (dose: 225.0 mg/kg/injection, schedule: Q01DX009 (ip), vehicle: saline) 98 % of control.

Consider `CC(=O)CC(=O)NCCCc1ccccc1`, for which the T/C runs as follows: (dose: 100.0 mg/kg/injection, schedule: Q01DX009 (sc), vehicle: olive oil, sesame oil, peanut oil) 101 % of control; under setting [4], 97 % of control; (dose: 200.0 mg/kg/injection, schedule: Q01DX009 (sc), vehicle: olive oil, sesame oil, peanut oil) 103 % of control; under setting [5], 103 % of control; (dose: 400.0 mg/kg/injection, schedule: Q01DX009 (sc), vehicle: olive oil, sesame oil, peanut oil) 106 % of control; (dose: 400.0 mg/kg/injection, schedule: Q04DX003 (ip), vehicle: saline with Tween-80) 97 % of control.

Turning to `CC1(C)CN1P(=O)(N1CC1(C)C)N1CC1(C)C` (stereo unspecified), the T/C by setting is: (dose: 1.25 mg/kg/injection, schedule: Q01DX009 (ip), vehicle: saline) 105 % of control; (dose: 2.5 mg/kg/injection, schedule: Q01DX009 (ip), vehicle: saline) 111 % of control; (dose: 5.0 mg/kg/injection, schedule: Q01DX009 (ip), vehicle: saline) 107 % of control; (dose: 6.0 mg/kg/injection, schedule: Q01DX009 (ip), vehicle: saline) 182 % of control; (dose: 12.0 mg/kg/injection, schedule: Q01DX009 (ip), vehicle: saline) 151 % of control; (dose: 20.0 mg/kg/injection, schedule: Q01DX009 (ip), vehicle: saline) 194 % of control. The T/C (dose: 22.0 mg/kg/injection, schedule: Q01DX009 (ip), vehicle: saline) was 222 % of control; the T/C (dose: 33.0 mg/kg/injection, schedule: Q01DX009 (ip), vehicle: saline) is 213 % of control; the T/C (dose: 40.0 mg/kg/injection, schedule: Q01DX009 (ip), vehicle: saline) is 269 % of control; the T/C under setting [1] is 204 % of control; the T/C (dose: 75.0 mg/kg/injection, schedule: Q01DX009 (ip), vehicle: saline) is 95 % of control; the T/C (dose: 112.5 mg/kg/injection, schedule: Q01DX001 (ip), vehicle: saline) was 184 % of control. The T/C (dose: 150.0 mg/kg/injection, schedule: Q01DX001 (ip), vehicle: saline) is 225 % of control and 86 % of control.

With `COC(=O)C(Br)C(Br)N1C(=O)c2ccccc2C1=O` (stereo unspecified), the T/C under setting [6] was 98 % of control; the T/C under setting [7] is 102 % of control; the T/C under setting [8] is 96 % of control; the T/C under setting [9] is 105 % of control; the T/C under setting [10] is 102 % of control; the T/C under setting [11] was 97 % of control.

As to `OC1CN(C2CCCCC2)C1`, under setting [3], the T/C was 98 % of control.

`CCN1C(=O)CC(=O)N(CC)C1=S`: the T/C is 103 % of control under setting [12]; 101 % of control under setting [6]; 94 % of control under setting [7]; 97 % of control under setting [8]; 89 % of control under setting [9].

Turning to `CC1(C)OCC2OC(N)C(O)C2O1` (stereo unspecified), the T/C is 100 % of control under setting [3]; 89 % of control (dose: 200.0 mg/kg/injection, schedule: Q04DX003 (ip), vehicle: saline); 98 % of control (dose: 400.0 mg/kg/injection, schedule: Q04DX003 (ip), vehicle: saline).

For the compound `CC(C)=CCC/C(C)=C/CNc1ncnc2c1ncn2C1OC(CO)C(O)C1O` (stereo unspecified), the T/C (dose: 100.0 mg/kg/injection, schedule: Q01DX005 (ip), vehicle: saline) was 95 % of control and the T/C (dose: 200.0 mg/kg/injection, schedule: Q01DX005 (ip), vehicle: saline) was 94 % of control.

For `CSc1nc(SCc2ccc(Cl)cc2)ncc1C`, the T/C under setting [13] is 92 % of control and the T/C (dose: 200.0 mg/kg/injection, schedule: Q01DX Z (ip), vehicle: methylcellulose (MC)) was 94 % of control.

On to `CCN1N=Nc2cccc3cccc1c23`, for which the T/C (dose: 100.0 mg/kg/injection, schedule: Q04DX003 (ip), vehicle: acetone) was 99 % of control and the T/C (dose: 200.0 mg/kg/injection, schedule: Q04DX003 (ip), vehicle: acetone) is 100 % of control.

Take `CC1=CC2=NC(=O)C(c3ccccc3)C(=O)N2C=C1` (stereo unspecified): the T/C under setting [6] is 90 % of control; the T/C under setting [7] is 90 % of control; the T/C under setting [8] is 100 % of control; the T/C under setting [9] is 103 % of control; the T/C under setting [10] was 86 % of control; the T/C under setting [11] was 97 % of control.

Take `O=C(O)C1C(C(=O)Nc2cc(C(F)(F)F)ccc2Cl)C2(Cl)C(Cl)=C(Cl)C1(Cl)C2(Cl)Cl` (stereo unspecified): the T/C by setting is: (dose: 25.0 mg/kg/injection, schedule: Q01DX009 (ip), vehicle: Klucel (hydroxypropylcellulose) (HPC)) 97 % of control; under setting [12], 95 % of control; under setting [14], 95 % of control; under setting [7], 93 % of control and 91 % of control.

On to `O=c1ssc(Cl)c1Cl`, for which the T/C reads like this: (dose: 9.5 mg/kg/injection, schedule: Q01DX001 (ip), vehicle: other) 94 % of control; (dose: 10.0 mg/kg/injection, schedule: Q04DX003 (ip), vehicle: other) 97 % of control; (dose: 19.0 mg/kg/injection, schedule: Q01DX001 (ip), vehicle: other) 103 % of control; (dose: 20.0 mg/kg/injection, schedule: Q04DX003 (ip), vehicle: other) 107 % of control; (dose: 38.0 mg/kg/injection, schedule: Q01DX001 (ip), vehicle: other) 87 % of control; (dose: 40.0 mg/kg/injection, schedule: Q04DX003 (ip), vehicle: other) 88 % of control.

For `CCOC(=O)c1cnc(NN)nc1Nc1ccccc1Cl`, the T/C under setting [4] was 92 % of control and the T/C under setting [5] is 96 % of control.

With `COc1ccccc1N=Nc1c(O)n(-c2ccccc2C)c(=S)n(-c2ccccc2)c1=O`, the T/C is 107 % of control (dose: 25.0 mg/kg/injection, schedule: Q04DX003 (ip), vehicle: Klucel (hydroxypropylcellulose) (HPC)); 105 % of control under setting [14]; 101 % of control (dose: 100.0 mg/kg/injection, schedule: Q01DX001 (ip), vehicle: Klucel (hydroxypropylcellulose) (HPC)); 107 % of control under setting [7]; 95 % of control (dose: 200.0 mg/kg/injection, schedule: Q01DX001 (ip), vehicle: Klucel (hydroxypropylcellulose) (HPC)).

With `CC1CN(Cc2ccccc2)C(=S)NC1=O` (stereo unspecified), the T/C was 89 % of control (dose: 25.0 mg/kg/injection, schedule: Q01DX Z (ip), vehicle: methylcellulose (MC)) and 98 % of control under setting [13].

For the compound `CC(=O)c1ccccc1Br`, the T/C is 100 % of control under setting [8] and 97 % of control under setting [10].

For the compound `CC(=O)Oc1cc2c(cc1N=NN(C)C)[C@H]1CC[C@]3(C)[C@@H](O)CC[C@H]3[C@@H]1CC2`, the T/C under setting [12] is 95 % of control.

In the case of `O=C1c2cc(Cl)ccc2-c2ccc([N+](=O)[O-])cc21`, the T/C under setting [7] was 100 % of control, the T/C under setting [9] was 97 % of control and the T/C under setting [11] was 106 % of control.

In the case of `O=C(O)CC1(O)CCCC1`, the T/C is, setting by setting: (dose: 25.0 mg/kg/injection, schedule: Q04DX003 (ip), vehicle: saline) 100 % of control; under setting [2], 96 % of control; under setting [3], 107 % of control.

Regarding `Cc1cccc(Nc2nc(N)nc(N)c2N)c1`, the T/C runs as follows: (dose: 25.0 mg/kg/injection, schedule: Q01DX Z (ip), vehicle: saline) 101 % of control; (dose: 50.0 mg/kg/injection, schedule: Q01DX Z (ip), vehicle: saline) 91 % of control.
